Values of other authors as cited in patent US6221874A, “Method of treating bone loss by stimulation of calcitonin” (American Home Products Corporation, priority 1999, dated 2001).

Legend:
[1] = post-menopausal osteoporosis; cited from earlier work
[2] = cited from earlier work

For “calcitonin: 32 amino acid polypeptide hormone secreted by the parafollicular or C cells of the thyroid gland”, the “effect on bone mass and total body calcium” value [1] is listed as “maintenance of bone mass and total body calcium”, the “incidence of hip and vertebral fractures” value [1] is listed as “decreases in the incidence of hip and vertebral fractures” and the “oral bioavailability (in words)” value [2] is listed as “lack of oral bioavailability”.
